What follows are compounds tested against Cytochrome P450 2E1 (Homo sapiens, UniProt P05181) (assay: Binding Assay).
From the text: Binding assay using CYP2E1.

Sequence of Cytochrome P450 2E1 (P05181 whole entry): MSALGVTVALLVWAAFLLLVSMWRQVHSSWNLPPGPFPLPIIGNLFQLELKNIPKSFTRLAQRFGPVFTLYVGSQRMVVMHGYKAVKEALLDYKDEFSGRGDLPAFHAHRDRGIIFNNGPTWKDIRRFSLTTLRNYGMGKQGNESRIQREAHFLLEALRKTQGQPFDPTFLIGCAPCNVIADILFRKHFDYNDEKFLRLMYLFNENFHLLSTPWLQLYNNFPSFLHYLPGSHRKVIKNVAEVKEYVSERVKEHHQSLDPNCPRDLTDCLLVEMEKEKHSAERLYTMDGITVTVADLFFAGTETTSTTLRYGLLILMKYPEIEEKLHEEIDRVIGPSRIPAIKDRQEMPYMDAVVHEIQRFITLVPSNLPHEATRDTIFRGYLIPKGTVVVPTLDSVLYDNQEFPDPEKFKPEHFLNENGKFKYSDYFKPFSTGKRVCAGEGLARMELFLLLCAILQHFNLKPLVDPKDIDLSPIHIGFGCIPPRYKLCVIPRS

Kd [µM]	SMILES
9	O=C(O)CCCCCCCCCn1ccnc1 [Omega-imidazolyl decanoic acid]
21	O=C(O)CCCCCCCn1ccnc1
1.8	O=C(O)CCCCCCCCCCCn1ccnc1 [Omega-imidazolyl dodecanoic acid]
